From US9394284B2, “Compounds act at multiple prostaglandin receptors giving a general anti-inflammatory response” (Allergan, Inc., priority 2010, dated 2016)

How the values were obtained:
[1] = tested on: Dutch-belted pigmented rabbits; assay: Arachidonate induced uveitis, anterior chamber leukocyte infiltration; type: in vivo, rabbit; conditions: topical, concentrations of 0.1, 0.3 and 1%; sodium arachidonate challenge; FIG. 12
Experimental: Arachidonate Induced Uveitis
The rational for this protocol is to use arachidonate to directly produce ocular anterior segment uveitis, as opposed to using lipopolysaccharide (LPS) to indirectly release arachidonic acid.
Conscious male or female Dutch-belted pigmented rabbits weighing 2.5-3 kg were used for all in vivo slit lamp studies. Four animals were employed per test group. The right eye of each animal receiving 35 μl of topically administered test and the contralateral left eye of each animal receiving 35 μl of topically administered vehicle (t=0 minutes), followed 30 minutes later by treatment with 35 μl of 0.5% sodium arachidonate onto the surface of both eyes (t=30 minutes). Both eyes were examined by slit lamp 60 minutes following sodium arachdionate challenge (t=90 minutes) at 16× magnification under both white light and blue light illumination at an approximate angle of 45° through 1 mm and 5 mm slit widths.
Measurement of Anterior Chamber Leukocyte Infiltration:
Anterior chamber leukocyte infiltration was measured using a numerical scoring system to estimate cell number per field defined by a 5 mm slit width: 0=no cells per field (no response); 1=1-10 cells per field (mild); 2=11-20 cells per field (moderate); 3=[…] cells per field (severe); 4=>50 cells per filed (florid). Results are reported as the mean score value±S.E.M.

[2] = tested on: allergic conjunctival itch; assay: Allergic conjunctival itch model; type: in vivo; conditions: FIGS. 10 and 11
Experimental: The compounds of this invention were tested according to the method described in “Characterization of Receptor Subtypes Involved in Prostanoid-Induced Conjunctival Pruritis and Their Role in Mediating Conjunctival Itching”, Vol. 279, No. 1, (JPET) 279, 137-142' 1996 for their efficacy in alleviating itch.

Strains TA 98 and TA 100 = assay: Ames Test for mutagenicity; type: cell-based
Experimental: The compounds of FIGS. 3 and 3(a) were tested for mutagenicity by means of the Ames Test using Strains TA 98 and TA 100. The results were negative for both compounds.

| Structure (SMILES) | anterior chamber leukocyte infiltration (uveitis model) [1] | number of itch-scratch episodes [2] | mutagenicity (Ames Test) (Strains TA 98 and TA 100) |
| --- | --- | --- | --- |
| CCC(CC)COc1ccc(Br)cc1Cn1nc(CCC(=O)O)cc1C [Example 3, 3-{1-[5-Bromo-2-(2-ethyl-butoxy)-benzyl]-5-methyl-1H-pyrazol-3-yl}-propionic acid] | dose dependent response | significantly lower number of itch-scratch episodes | negative |
| CCC(CC)COc1ccc(Cl)cc1Cn1nc(CCC(=O)O)cc1C [Example 3a, 3-{1-[5-Chloro-2-(2-ethyl-butoxy)-benzyl]-5-methyl-1H-pyrazol-3-yl}-propionic acid] | dose dependent response | significantly lower number of itch-scratch episodes | negative |
